Assay results reported in ChEMBL document CHEMBL6092194, “Development of membrane-targeting chalcone derivatives as antibacterial agents against multidrug-resistant bacteria” (Eur J Med Chem, 2024).

Tests used:
Staphylococcus aureus [1] = test: Antibacterial activity against penicillin-resistant Staphylococcus aureus ATCC31007 by broth microdilution assay; format: functional
Acinetobacter baumannii = test: Antibacterial activity against Acinetobacter baumannii ATCC19606 by broth microdilution assay; format: functional
Bacillus subtilis = test: Antibacterial activity against penicillin-susceptible Bacillus subtilis ATCC9372 by broth microdilution assay; format: functional
[2] = Selectivity index, ratio of HC50 for hemolytic activity in red blood cells (unknown origin) to MIC for antibacterial activity against penicillin-resistant Staphylococcus aureus ATCC43300; format: toxicity, cell-based, RBC; settings: read-out: Selectivity Index
[3] = system: Staphylococcus epidermidis; test: Antibacterial activity against erythromycin-susceptible Staphylococcus epidermidis ATCC12228 by broth microdilution assay; format: functional
Escherichia coli = test: Antibacterial activity against penicillin-susceptible Escherichia coli ATCC25922 by broth microdilution method; format: functional
Staphylococcus aureus [4] = test: Antibacterial activity against erythromycin susceptible Staphylococcus aureus ATCC25923 by broth microdilution assay; format: functional
Klebsiella pneumoniae = test: Antibacterial activity against Klebsiella pneumoniae ATCC10031 by broth microdilution assay; format: functional
Staphylococcus aureus [5] = test: Antibacterial activity against penicillin-resistant Staphylococcus aureus ATCC43300 by broth microdilution assay; format: functional
[6] = Hemolytic activity in red blood cells (unknown origin); format: toxicity, cell-based, Erythrocyte
Enterococcus faecalis = test: Antibacterial activity against vancomycin susceptible Enterococcus faecalis ATCC29212 by broth microdilution assay; format: functional
Pseudomonas aeruginosa = test: Antibacterial activity against penicillin-susceptible Pseudomonas aeruginosa ATCC27853 by broth microdilution method; format: functional

SMILES | MIC (Staphylococcus aureus [1]) [µg/mL] | MIC (Acinetobacter baumannii) [µg/mL] | MIC (Bacillus subtilis) [µg/mL] | selectivity ratio [2] | MIC [3] [µg/mL] | MIC (Escherichia coli) [µg/mL] | MIC (Staphylococcus aureus [4]) [µg/mL] | MIC (Klebsiella pneumoniae) [µg/mL] | MIC (Staphylococcus aureus [5]) [µg/mL] | HC50 [6] [µg/mL] | MIC (Enterococcus faecalis) [µg/mL] | MIC (Pseudomonas aeruginosa) [µg/mL]
CCCCOc1cc[n+](CCCOc2ccc(/C=C/C(=O)c3ccc(OCCC[n+]4ccc(OCCCC)cc4)cc3)cc2)cc1.[Br-].[Br-] | 2 | 128 | 1 | > 320 | 1 | 16 | 1 | 8 | 4 | > 1280 | 0.5 | 64
CCCCCCCCCC[N+](C)(C)CCCCCCCOc1ccc(C(=O)/C=C/c2ccccc2)cc1.[Br-] | 8 | 128 | 4 | 12.6 | 4 | > 128 | 4 | 32 | 4 | 50.5 | 8 | > 128
COc1ccc(CC(=O)Nc2cc[n+](CCCOc3ccc(C(=O)/C=C/c4ccccc4)cc3)cc2)cc1.[Br-] | 16 | 128 | 16 | 90.5 | 128 | 128 | 8 | 64 | 8 | 724 | 16 | > 128
CCCCCC(=O)Nc1cc[n+](CCCOc2ccc(C(=O)/C=C/c3ccccc3)cc2)cc1.[Br-] | 4 | > 128 | 4 | > 320 | > 128 | > 128 | 2 | > 128 | 4 | > 1280 | 8 | > 128
CC(C)=CC(=O)Nc1cc[n+](CCCOc2ccc(C(=O)/C=C/c3ccccc3)cc2)cc1.[Br-] | > 128 | > 128 | > 128 | > 10 | > 128 | > 128 | > 128 | > 128 | > 128 | > 1280 | > 128 | > 128
CCCCCCCCCCOc1cc[n+](CCCOc2ccc(/C=C/C(=O)c3ccc(OCCC[n+]4ccc(OCCCCCCCCCC)cc4)cc3)cc2)cc1.[Br-].[Br-] | 128 | 32 | 128 | 1.3 | 8 | 128 | 128 | 16 | 128 | 161 | 128 | > 128
O=C(Cc1ccc(-c2ccccc2)cc1)Nc1cc[n+](CCCOc2ccc(C(=O)/C=C/c3ccccc3)cc2)cc1.[Br-] | 128 | > 128 | > 128 | > 10 | > 128 | > 128 | > 128 | > 128 | > 128 | > 1280 | > 128 | > 128
CCCCCCCCCC(=O)Nc1cc[n+](CCCOc2ccc(C(=O)/C=C/c3ccccc3)cc2)cc1.[Br-] | 4 | 64 | 2 | 218 | 16 | 32 | 4 | > 128 | 4 | 871 | 8 | > 128
CCCCCCCC(=O)Nc1cc[n+](CCCOc2ccc(C(=O)/C=C/c3ccccc3)cc2)cc1.[Br-] | 2 | 128 | 2 | 443 | 8 | 32 | 2 | 16 | 2 | 887 | 4 | > 128
CCCC[N+](C)(C)CCCCCOc1ccc(C(=O)/C=C/c2ccccc2)cc1.[Br-] | 64 | 128 | 32 | 16.8 | 16 | > 128 | 8 | 64 | 32 | 538 | 32 | > 128
CCCCCC[N+](C)(C)CCCCCOc1ccc(C(=O)/C=C/c2ccccc2)cc1.[Br-] | 16 | 64 | 8 | 7 | 8 | > 128 | 2 | 32 | 16 | 112 | 16 | > 128
CCCCCCCC[N+](C)(C)CCCOc1ccc(/C=C/C(=O)c2ccc(OCCC[N+](C)(C)CCCCCCCC)cc2)cc1.[Br-].[Br-] | 1 | 32 | 1 | 129 | 1 | 4 | 1 | 16 | 1 | 129 | 2 | 16
CCCCCCCCOc1cc[n+](CCCOc2ccc(/C=C/C(=O)c3ccc(OCCC[n+]4ccc(OCCCCCCCC)cc4)cc3)cc2)cc1.[Br-].[Br-] | 64 | 128 | 64 | 5.6 | 32 | 128 | 64 | 64 | 32 | 180 | 64 | 128
CCCCCCCCCCNC(=O)C[N+](C)(C)CCCOc1ccc(/C=C/C(=O)c2ccc(OCCC[N+](C)(C)CC(=O)NCCCCCCCCCC)cc2)cc1.[Br-].[Br-] | 16 | 128 | 32 | 1 | 64 | > 128 | 32 | > 128 | 64 | 66.1 | > 128 | > 128
CCCC[N+](C)(C)CCCCCCCOc1ccc(C(=O)/C=C/c2ccccc2)cc1.[Br-] | 16 | 64 | 32 | 16.3 | 16 | > 128 | 8 | 32 | 8 | 130 | 32 | > 128
O=C(CC12CC3CC(CC(C3)C1)C2)Nc1cc[n+](CCCOc2ccc(C(=O)/C=C/c3ccccc3)cc2)cc1.[Br-] | 64 | > 128 | 64 | 5.5 | 64 | > 128 | 32 | > 128 | 128 | 708 | 64 | > 128
CCCC[N+](C)(C)CCCOc1ccc(/C=C/C(=O)c2ccc(OCCC[N+](C)(C)CCCC)cc2)cc1.[Br-].[Br-] | 2 | > 128 | 8 | 73.8 | 2 | 128 | 2 | 128 | 8 | 590 | 4 | > 128
CCCCCCCCCC[N+](C)(C)CCCOc1ccc(/C=C/C(=O)c2ccc(OCCC[N+](C)(C)CCCCCCCCCC)cc2)cc1.[Br-].[Br-] | 2 | 128 | 2 | 22 | 1 | 8 | 8 | 64 | 2 | 44 | 2 | 32
